Experimental data taken from PubChem BioAssay (NCI).
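Exposure lasted 48 hours, with cells grown in 96-well plates and compounds tested at five concentrations. Abbreviation: GI50, concentration required for 50% inhibition of growth. TGI denotes the concentration required for complete inhibition of growth.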

Columns and labels:
Assay in all cases: NCI tumour cell line growth inhibition, 48 h
BT-549 breast = system: BT-549 breast
HCC-2998 colon = system: HCC-2998 colon
HOP-92 NSCLC = system: HOP-92 NSCLC
NCI-H226 lung = system: NCI-H226 lung
NCI-H23 lung = system: NCI-H23 lung
RXF 393 renal = system: RXF 393 renal
SF-268 CNS = system: SF-268 CNS
SK-OV-3 ovarian = system: SK-OV-3 ovarian
T-47D breast = system: T-47D breast
UACC-62 melanoma = system: UACC-62 melanoma

SMILES	TGI (BT-549 breast)	TGI (HCC-2998 colon)	TGI (HOP-92 NSCLC)	TGI (NCI-H226 lung)	TGI (NCI-H23 lung)	TGI (RXF 393 renal)	TGI (SF-268 CNS)	TGI (SK-OV-3 ovarian)	TGI (T-47D breast)	TGI (UACC-62 melanoma)	GI50 (BT-549 breast)	GI50 (HCC-2998 colon)	GI50 (HOP-92 NSCLC)	GI50 (NCI-H226 lung)	GI50 (NCI-H23 lung)	GI50 (RXF 393 renal)	GI50 (SF-268 CNS)	GI50 (SK-OV-3 ovarian)	GI50 (T-47D breast)	GI50 (UACC-62 melanoma)
O=C(O)c1ccccc1CC1Cc2ccccc2C1=O (configuration not stated)	> 100 µM	> 100 µM	> 100 µM	> 100 µM	> 100 µM	> 100 µM	> 100 µM	> 100 µM	> 100 µM	> 100 µM										
CCOC(=O)c1nc2c(nc1C(=O)OCC)C(=O)c1ccccc1C2=O	2.76 µM	2.97 µM	33.6 µM	1.5 µM		2.81 µM	7.62 µM	5.97 µM	> 62.8 µM	0.956 µM										
CC1(C)C2CCC1(C)[C@H](n1c(=O)n([C@@H]3CC4CCC3(C)C4(C)C)c(=O)n([C@@H]3CC4CCC3(C)C4(C)C)c1=O)C2	> 100 µM	57.5 µM	> 100 µM	76.4 µM	> 100 µM	55.8 µM	> 100 µM		> 100 µM											
CN(C)C1(N(C)C)Oc2c(c(=O)n(C)c(=O)n2C)C(c2ccc(Br)cc2)C1(F)F (configuration not stated)	> 100 µM	> 100 µM	> 100 µM	> 100 µM	> 100 µM	> 100 µM	> 100 µM	> 100 µM	> 100 µM	> 100 µM										
COc1cccc2c1OC1(C=C2)Oc2ccccc2C(=O)N1C (configuration not stated)	88.2 µM	77.8 µM	98.2 µM	95.9 µM	> 100 µM	> 100 µM	> 100 µM	74.3 µM	99 µM	> 100 µM										
CCOC(=O)c1cn2c(nc1=O)N[C@H]1CCCC[C@@H]12	> 100 µM	> 100 µM	> 100 µM	> 100 µM	> 100 µM		> 100 µM	> 100 µM	> 100 µM	> 100 µM										
Cc1cn(C2CC(O)C(CO)O2)c(=O)[nH]c1=O (configuration not stated)	> 5000 µM	> 5000 µM	> 4830 µM	> 5000 µM	> 4530 µM	> 5000 µM	> 5000 µM	> 4890 µM	> 5000 µM	3680 µM										
Cc1ccc(-c2[nH]c(=O)n(C3OC(CO)C(O)C(O)C3O)c(=O)c2C#N)cc1 (configuration not stated)	> 100 µM	> 100 µM	> 100 µM	> 100 µM	> 100 µM	> 100 µM	> 100 µM	> 100 µM	> 100 µM	> 100 µM										
O=C(O)CCC(=O)OC1N=C(c2ccccc2Cl)c2cc([N+](=O)[O-])ccc2NC1=O (configuration not stated)	> 100 µM	> 100 µM	> 100 µM		> 100 µM	> 100 µM	> 100 µM	> 100 µM	> 100 µM	> 100 µM										
CS(=O)c1ncc2c(n1)-c1ccccc1OC2 (configuration not stated)	> 100 µM	> 100 µM	> 100 µM	> 100 µM	> 100 µM	> 100 µM	> 100 µM	> 100 µM	> 100 µM	> 100 µM										
CC(=O)Nc1nc(C#N)[nH]c1C#N	> 100 µM	> 100 µM	> 100 µM	> 100 µM	> 100 µM	> 100 µM	> 100 µM	> 100 µM	> 100 µM	> 100 µM										
N#CC12C(=O)N=C(N)C1(C#N)C(c1ccco1)NC1=C2CCCC1 (configuration not stated)	> 100 µM	> 100 µM	> 100 µM	> 100 µM	> 100 µM	> 100 µM	> 100 µM	> 100 µM	> 100 µM	> 100 µM										
O=C(/C=C/c1ccc2c(c1)OCO2)CC(=O)C(=O)c1c[nH]c2ccccc12	> 100 µM	48.4 µM	> 100 µM		> 100 µM	96.6 µM	> 100 µM	> 100 µM	62.1 µM	> 100 µM										
CCOC(=O)C1=C(C)C2C=C(c3cccs3)CC(c3ccc(Cl)cc3)=C2OC1=O (configuration not stated)	> 100 µM	77.3 µM	> 100 µM	> 100 µM	> 100 µM	> 100 µM	> 100 µM	> 100 µM	66.5 µM	> 100 µM										
COc1ccc2c(c1)OCC1Cc3ccccc3OC21 (configuration not stated)	> 100 µM	> 100 µM	> 100 µM	> 100 µM	> 100 µM		> 100 µM	> 100 µM	> 100 µM	> 100 µM										
O=c1[nH]c(=O)n(C2OC(CO)C(O)C2O)c2nc(-c3ccc(-c4ccccc4)cc3)cnc12 (configuration not stated)	> 100 µM	> 100 µM	> 100 µM	> 100 µM	> 100 µM	> 100 µM	> 100 µM	> 100 µM	> 100 µM	> 100 µM										

SMILES	TGI (BT-549 breast)	TGI (HCC-2998 colon)	TGI (HOP-92 NSCLC)	TGI (NCI-H226 lung)	TGI (NCI-H23 lung)	TGI (RXF 393 renal)	TGI (SF-268 CNS)	TGI (SK-OV-3 ovarian)	TGI (T-47D breast)	TGI (UACC-62 melanoma)	GI50 (BT-549 breast)	GI50 (HCC-2998 colon)	GI50 (HOP-92 NSCLC)	GI50 (NCI-H226 lung)	GI50 (NCI-H23 lung)	GI50 (RXF 393 renal)	GI50 (SF-268 CNS)	GI50 (SK-OV-3 ovarian)	GI50 (T-47D breast)	GI50 (UACC-62 melanoma)
COc1cc(C2c3cc4c(cc3OC(NN)C2C)OCO4)cc(OC)c1OC (configuration not stated)	> 100 µM	3.55 µM	84.8 µM	> 24.4 µM	> 100 µM	> 100 µM	> 100 µM	> 100 µM	> 100 µM	> 100 µM										
COC(=O)C1CCC(=O)N1C(c1ccc(OC)cc1)c1ccc2c(c1)OCO2 (configuration not stated)	> 100 µM	> 100 µM	> 100 µM	> 100 µM	> 100 µM		> 100 µM	> 100 µM	> 100 µM	> 100 µM										
Cc1c(S(=O)(=O)c2ccccc2)c(N)n(CCN(C)C)c1C	> 100 µM	> 100 µM	> 100 µM	> 100 µM	> 100 µM	> 100 µM	> 100 µM	> 100 µM	> 100 µM	> 100 µM										
CCN(CC)CCn1c(=O)c2cccnc2n2c3c(=O)n(C)c(=O)n(C)c3nc12	> 100 µM	> 100 µM	> 100 µM	> 100 µM	> 100 µM	> 100 µM	> 100 µM	> 100 µM	> 100 µM	> 100 µM										
CC1=NN(c2cccc(Cl)c2)C2(C1=C/C=C/c1ccccc1)C(Cl)C(=O)N2c1nc2ccccc2s1 (configuration not stated)	> 100 µM	86.8 µM	> 53.2 µM	> 100 µM	> 80.3 µM	> 49 µM	56.1 µM	> 95.1 µM	> 100 µM	> 100 µM										
CCNC(=O)Cc1nc2c(N)ncnc2n1C1OC(CO)C(O)C1O (configuration not stated)	> 100 µM	> 100 µM	> 100 µM	> 100 µM	> 100 µM		> 100 µM	> 100 µM	> 100 µM	> 100 µM										
COc1ccc2c(c1)/C(=C\c1c(Cl)nc3sc(C)cn13)C(=O)N2	20.5 µM	18.3 µM	23.1 µM		18.9 µM	21.1 µM	17.3 µM	14.6 µM	14.6 µM	16.4 µM										
CCCCC(C(=O)NCCNC(=O)CCC(=O)N(C)O)C(=O)NCCNC(=O)CCC(=O)N(C)O	> 100 µM	> 100 µM	> 100 µM	> 100 µM	> 100 µM	> 100 µM		> 100 µM	> 100 µM	> 100 µM										
NC1=NCC(CN2CCOCC2)O1 (configuration not stated)	> 100 µM	> 100 µM	> 100 µM		> 100 µM	> 100 µM	> 100 µM	> 100 µM	> 100 µM	> 100 µM										
CO[C@H]1/C=C(/C)CCC[C@H](C)[C@H](O)[C@@H](C)C(=O)C(C)(C)[C@@H](O)CC(=O)O[C@@H]1/C(C)=C/c1csc(C)n1	> 100 µM	0.259 µM	> 100 µM	> 100 µM	> 100 µM	0.0725 µM	> 100 µM	> 77.2 µM	> 100 µM	> 100 µM	49.8 nM	20.3 nM	38 nM	32.4 nM	34.9 nM	18.7 nM	34.6 nM	27.2 nM	66.8 nM	28.7 nM
NS(=O)(=O)c1cc(Cl)c(NC(=S)NC(=O)Nc2ccc(Cl)c(Cl)c2)c(Cl)c1	> 100 µM	> 100 µM	> 100 µM	> 100 µM	> 100 µM	> 100 µM	> 100 µM	> 100 µM	> 100 µM	90.2 µM										
COc1cccc2c(=O)oc(-c3ccc(C(C)(C)C)cc3)nc12	> 100 µM	33.5 µM	> 100 µM		> 100 µM	> 100 µM	> 100 µM	> 100 µM	> 100 µM	> 100 µM										
O=[N+]([O-])c1ccc(Oc2c(Cl)cc(S(=O)(=O)/N=C(\NO)Nc3ccc(Cl)cc3)cc2Cl)cc1	25 µM	13.1 µM	11.1 µM	35.3 µM	23.6 µM	29.9 µM	35.3 µM	31.2 µM	34.3 µM	24.1 µM										
COc1ccc(NC(=O)CC(=O)N2N=C(N3c4ccccc4Sc4ccccc43)CC2c2ccccc2)cc1 (configuration not stated)	> 100 µM	> 100 µM	> 100 µM	> 100 µM	> 100 µM	> 100 µM	82.9 µM	> 100 µM	> 100 µM	> 100 µM										
N=C(N)SCc1ccc2c(c1)Sc1ccccc1O2	16.1 µM	6.89 µM	26.8 µM	31.1 µM	21.5 µM	14 µM	27.8 µM	27 µM	43 µM	19.7 µM										
Cc1ccc(S(=O)(=O)N/N=C/C2(c3ccccc3)c3ccccc3-c3ccccc32)cc1	27.7 µM	26.3 µM	25.5 µM	34.1 µM	37.1 µM	27.3 µM	52.7 µM	39.8 µM	44 µM	27.3 µM										
